pIC50: −log10 of the molar value. Read-outs that look alike come from different tables or passages of the source. Each block holds one molecule with its values, some of them ahead of it.
Experiments:
[1] = molecular target: r-hPDE2A (Homo sapiens (Human), UniProt O00408); assay: Measurement of PDE2 inhibition in vitro (IMAP fluorescence polarization); format: biochemical; details: FL-cAMP substrate, buffer supplemented with 1 μM cGMP
Method: Measurement of PDE2 Inhibition In Vitro
r-hPDE2A (Accession No. NM_002599, Homo sapiens phosphodiesterase 2A, cGMP-stimulated, transcript variant 1) A mammalian expression cloning vector with recombinant cDNA copy of the gene is purchased from Origene. Protein is expressed via transient transfection of HEK293 cells. The cells are harvested at 48 hours after transfection, washed once with TBS buffer (50 mM Tris-HCl, pH 7.5, 150 mM NaCl), then lysed by sonication in cold homogenization buffer (50 mM Tris-HCl, pH 7.5, 5 mM MgCl2, 1× protease inhibitor cocktail). The homogenate is centrifuged for 30 min at 15,000 g at 4° C. to obtain the soluble cytosolic fraction. The protein concentration of the cytosol is determined using BCA Protein Assay Kit (Pierce) with bovine serum albumin as a standard.
Assay: PDE2A is assayed with FL-cAMP as substrate. An enzyme titration is first performed to determine the working concentration of PDE. The concentration of the enzyme giving activity of 100 ΔmP in the absence of inhibitor is deemed an appropriate working concentration for PDE.
PDE enzyme is diluted in a standard reaction buffer (10 mM Tris-HCl pH 7.2, 10 mM MgCl2, 0.1% BSA, 0.05% NaN3) according to the titration curve. For PDE2 assay the reaction buffer is supplemented with 1 μM cGMP to fully activate the enzyme. 99 μl of diluted enzyme solution is added into each well in a flat bottom 96-well polystyrene plate and then ˜1 μl of test compound dissolved in 100% DMSO is added. The compounds are mixed and pre-incubated with the enzyme for 10 min at room temperature.
The FL-cNMP conversion reaction is initiated by addition of substrate (45 nM final). Enzyme and inhibitor mix (16 μl) and substrate solution (4 μl of 0.225 μM) are combined in a 384-well microtiter plate. The reaction is incubated in the dark at room temperature for 15 min. The reaction is halted by addition of 60 μl of binding reagent (1:400 dilution of IMAP beads in binding buffer supplemented with 1:1800 dilution of antifoam) to each well of the 384-well plate. The plate is incubated at room temperature for 1 hour to allow IMAP binding to proceed to completion, and then placed in an Envision multimode microplate reader (PerkinElmer, Shelton, Conn.) to measure the fluorescence polarization (Δmp).
A decrease in cAMP concentration, measured as decreased Amp, is indicative of inhibition of PDE activity. […] Test well values are normalized to control reactions run on the same plate (values converted to % of control). IC50 values are estimated using nonlinear regression software, fitting a four-parameter one-site dose-response model (XLFit; IDBS, Cambridge, Mass.). Bottom of curve is fixed at 0% of control.
The total fluorescence intensity of each sample well is measured to calculate the average and standard deviation. If the total fluorescence intensity of any sample well is not within the range of Average±3SD, the mp value of that particular well is discarded.

[2] = published standard, 10 mg/kg PO; cited from earlier work
[3] = Pharmacokinetic study in mice (plasma and brain availability); format: in vivo; details: 10 mg/kg PO; for blood plasma ratio: brain/plasma, po, 10 mg/kg
Method: Pharmacokinetic Study in Mice
Mice are given a single oral dose of the compound of Example 22 (10 mg/kg, PO) and plasma and brain availability are measured (0.25-4 h) using HPLC and LC-MS using methods analogous to those described in Zhao et al., J. Chromatogr. B. Analyt. Technol. Biomed. Life Sci. (2005) 819(1):73-80 and Appels, N. M., et al., Rapid Commun. Mass Spec. 2005. 19(15): p. 2187-92.

[4] = test system: cGMP levels in the striatum; assay: Measurements of cGMP in mouse brain in vivo
Method: Measurements of cGMP in Mouse Brain in vivo:
Striatum are dissected from the mouse brains and assayed for levels of cGMP. Trichloroacetic acid (TCA) is added to tissue samples for a final concentration of 5% TCA and the tissue is immediately sonicated in solution and stored on ice. The sonicated sample is centrifuged at 15,000×g for 20 min at 4° C. to remove the precipitated protein. To extract the TCA, the sample is washed three times in water saturated ether. The samples are then dried under vacuum (Speedvac, Savant SPD111V) at room temperature and re-suspended in 100 μL EIA buffer. […] Each sample is tested in duplicate in precoated assay plates alongside the 8-point cGMP standard dilutions. In addition, blank, maximum binding (B0) and non-specific binding wells are included. To all wells containing 50 μL sample or standard, equal volumes of AChE-linked cGMP and cGMP antibody are added. The plate is incubated at 4° C. for 18 hours. The wells are then washed 5 times with wash buffer. […] Each data point is converted to % B/B0 (100*[(sample or standard OD−average non-specific binding)/(average B0−average non-specific binding)]). The standards are plotted and fit to a 4-parameter logistic equation (FIG. 1). The concentrations of the samples are interpolated from the standard curve using Microsoft Excel and GraphPad Prizm.

Chain of r-hPDE2A (O00408 whole entry): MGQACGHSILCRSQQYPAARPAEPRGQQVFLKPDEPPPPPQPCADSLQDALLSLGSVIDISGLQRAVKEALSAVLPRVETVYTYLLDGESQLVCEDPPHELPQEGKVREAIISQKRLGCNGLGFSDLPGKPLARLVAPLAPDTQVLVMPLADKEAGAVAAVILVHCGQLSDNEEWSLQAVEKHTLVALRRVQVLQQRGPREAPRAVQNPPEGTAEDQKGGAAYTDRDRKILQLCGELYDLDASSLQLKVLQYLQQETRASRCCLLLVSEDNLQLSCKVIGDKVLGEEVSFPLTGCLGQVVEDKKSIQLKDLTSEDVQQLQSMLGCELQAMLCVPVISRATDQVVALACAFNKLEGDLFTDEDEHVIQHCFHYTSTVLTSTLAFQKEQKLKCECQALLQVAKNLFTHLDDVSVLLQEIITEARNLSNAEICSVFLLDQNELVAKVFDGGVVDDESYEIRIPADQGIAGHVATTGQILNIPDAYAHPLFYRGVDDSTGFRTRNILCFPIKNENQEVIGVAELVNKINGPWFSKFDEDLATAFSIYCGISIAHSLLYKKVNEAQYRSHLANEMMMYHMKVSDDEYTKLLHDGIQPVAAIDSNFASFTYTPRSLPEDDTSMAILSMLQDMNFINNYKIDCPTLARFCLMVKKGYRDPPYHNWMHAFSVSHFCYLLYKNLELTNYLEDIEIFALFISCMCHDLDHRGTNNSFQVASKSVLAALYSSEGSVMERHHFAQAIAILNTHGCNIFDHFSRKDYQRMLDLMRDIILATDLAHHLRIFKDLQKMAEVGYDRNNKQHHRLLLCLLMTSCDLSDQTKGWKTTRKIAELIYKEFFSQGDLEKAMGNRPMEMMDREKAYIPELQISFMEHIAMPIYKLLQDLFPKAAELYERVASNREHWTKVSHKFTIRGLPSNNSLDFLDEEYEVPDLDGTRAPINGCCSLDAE

SMILES: CCCCOc1ccc(Cl)c(-n2nc(C)c3c(=O)[nH]c4cccnc4c32)c1 [Example 17, 1-(5-Butoxy-2-chlorophenyl)-3-methyl-1H-pyrazolo[4,3-c][1,5]naphthyridin-4(5H)-one]
pIC50 [1]: 7.55

SMILES: COc1ccc(Cc2nn3c([C@@H](CCCc4ccccc4)[C@@H](C)O)nc(C)c3c(=O)[nH]2)cc1OC [Bay 60-7550]
Cmax [2]: 3 ng/mL
Tmax [2]: 0.25 h

pIC50 [1]: 7.14
SMILES: Cc1nn(-c2cc(Cl)ccc2Cl)c2c1c(=O)[nH]c1ccc(Cl)nc12 [Example 19, 8-Chloro-1-(2,5-dichlorophenyl)-3-methyl-1H-pyrazolo[4,3-c][1,5]naphthyridin-4(5H)-one]

SMILES: COc1ccc2[nH]c(=O)c3c(C)nn(-c4cc(OCC5CCC5)ccc4Cl)c3c2n1 [Example 22, 1-(2-Chloro-5-(cyclobutylmethoxy)phenyl)-8-methoxy-3-methyl-1H-pyrazolo[4,3-c][1,5]naphthyridin-4(5H)-one]
brain access ([3]; 0.25-4 h, compared to Bay 60-7550): good brain access
AUC ([3]; mouse, brain): 83 ng·h/mL
AUC(0-t) ([3]; mouse, brain): 50 ng·h/mL
Cmax ([3]; mouse, brain): 17 ng/mL
Tmax ([3]; mouse, brain): 2 h
half-life ([3]; mouse, brain, read-out: E Half-life (converted)): 2.4 h
blood plasma ratio ([3]; mouse, read-out: Blood/plasma Ratio of AUC (area)): 0.9
blood plasma ratio ([3]; mouse, read-out: Blood/plasma Ratio of Cmax (obs)): 1.4
blood plasma ratio ([3]; mouse, Blood/plasma Ratio of AUC (0-4 hr) (obs area)): 1.4
cGMP levels in the striatum of mice ([4]; 3 mg/kg i.p., 15, 30 or 60 min, compared to Bay 60-7550 (3 mg/kg)): increases cGMP levels
brain access compared to Bay60-7550 ([4]; inferred from striatal cGMP after 3 mg/kg i.p.): improvement in brain access
pIC50 [1]: 8.23

SMILES: CCCCOc1ccc(Cl)c(-n2nc(C)c3c(=O)[nH]c4ccc(Cl)nc4c32)c1 [Example 20, 1-(5-Butoxy-2-chlorophenyl)-8-chloro-3-methyl-1H-pyrazolo[4,3-c][1,5]naphthyridin-4(5H)-one]
pIC50 [1]: 7.92

SMILES: CCCCOc1ccc(Cl)c(-n2nc(C)c3c(=O)[nH]c4ccc(OC)nc4c32)c1 [Example 21, 1-(5-Butoxy-2-chlorophenyl)-8-methoxy-3-methyl-1H-pyrazolo[4,3-c][1,5]naphthyridin-4(5H)-one]
pIC50 [1]: 8.03

— patent publication US10105349B2, “Organic compounds” (INTRA-CELLULAR THERAPIES, INC., priority 2014, dated 2018)
